Experimental data from PubChem BioAssay AID330 (DTP/NCI, 2004).
Where “and” joins values, the source holds several entries; their conditions need not be identical. Identical values can stand only once. Inconclusive results and toxic doses are left out. Rule for the calls: active = survival T/C of 150% or more; inactive = T/C below 125% in these data. Peptide text beside a SMILES is read from it. * marks the point of attachment. X13 = CC(C)CC(NN)C(=O)*

Test system: P388 leukemia ip, CD2F1 mice, survival T/C
Assay: NCI In Vivo Anticancer Drug Screen. Data for tumor model P388 Leukemia (intraperitoneal) in CD2F1 (CDF1) mice
Conditions: endpoint: median survival time, higher = longer survival
Summary of the method: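 Mice carrying the transplanted tumor received test compound or vehicle. Survival was recorded in each group, and the value is the treated-group measurement divided by that of the vehicle-treated control group.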

[1] = dose: 50.0 mg/kg/injection, schedule: Q01DX005 (ip), vehicle: Klucel (hydroxypropylcellulose) (HPC)
[2] = dose: 100.0 mg/kg/injection, schedule: Q01DX005 (ip), vehicle: Klucel (hydroxypropylcellulose) (HPC)
[3] = dose: 200.0 mg/kg/injection, schedule: Q01DX005 (ip), vehicle: Klucel (hydroxypropylcellulose) (HPC)
[4] = dose: 25.0 mg/kg/injection, schedule: Q01DX005 (ip), vehicle: saline with Tween-80
[5] = dose: 50.0 mg/kg/injection, schedule: Q01DX005 (ip), vehicle: saline with Tween-80
[6] = dose: 100.0 mg/kg/injection, schedule: Q01DX005 (ip), vehicle: saline with Tween-80
[7] = dose: 200.0 mg/kg/injection, schedule: Q01DX005 (ip), vehicle: saline with Tween-80
[8] = dose: 25.0 mg/kg/injection, schedule: Q01DX005 (ip), vehicle: Klucel (hydroxypropylcellulose) (HPC)
[9] = dose: 50.0 mg/kg/injection, schedule: Q01DX009 (ip), vehicle: saline with Tween-80
[10] = dose: 100.0 mg/kg/injection, schedule: Q01DX009 (ip), vehicle: saline with Tween-80
[11] = dose: 200.0 mg/kg/injection, schedule: Q01DX009 (ip), vehicle: saline with Tween-80
[12] = dose: 50.0 mg/kg/injection, schedule: Q01DX009 (ip), vehicle: saline
[13] = dose: 100.0 mg/kg/injection, schedule: Q01DX009 (ip), vehicle: saline
[14] = dose: 200.0 mg/kg/injection, schedule: Q01DX009 (ip), vehicle: saline
[15] = dose: 60.0 mg/kg/injection, schedule: Q01DX005 (ip), vehicle: saline
[16] = dose: 120.0 mg/kg/injection, schedule: Q01DX005 (ip), vehicle: saline
[17] = dose: 240.0 mg/kg/injection, schedule: Q01DX005 (ip), vehicle: saline

Measured: T/C

CCOC(=O)c1no[n+]([O-])c1C(=O)OCC
inactive: dose: 6.25 mg/kg/injection, schedule: Q01DX009 (ip), vehicle: Klucel (hydroxypropylcellulose) (HPC) 103 % of control | dose: 12.5 mg/kg/injection, schedule: Q01DX009 (ip), vehicle: Klucel (hydroxypropylcellulose) (HPC) 105 % of control | dose: 25.0 mg/kg/injection, schedule: Q01DX009 (ip), vehicle: Klucel (hydroxypropylcellulose) (HPC) 101 % of control | dose: 50.0 mg/kg/injection, schedule: Q01DX009 (ip), vehicle: Klucel (hydroxypropylcellulose) (HPC) 86 % of control

Cc1cc(=O)c2cc3nc(-c4cccnc4)oc3c(Br)c2o1
inactive: [1] 97 % of control | [2] 96 % of control | [3] 88 % of control

CCCCOc1ccc(-c2cnc(-c3ccc(-c4ncc(-c5ccc(OCCCC)cc5)o4)cc3)o2)cc1
inactive: dose: 3.0 mg/kg/injection, schedule: Q01DX005 (ip), vehicle: saline with Tween-80 91 % of control | dose: 6.0 mg/kg/injection, schedule: Q01DX005 (ip), vehicle: saline with Tween-80 88 % of control | [4] 89 % of control | [5] 87 % of control and 94 % of control | [6] 99 % of control | [7] 108 % of control

COc1cc(OC)c(NC(=O)C(Sc2nc(C)cc(C)c2C#N)c2ccccc2)cc1Cl (stereo not drawn)
inactive: dose: 12.5 mg/kg/injection, schedule: Q01DX005 (ip), vehicle: Klucel (hydroxypropylcellulose) (HPC) 89 % of control | [8] 92 % of control and 93 % of control | [1] 100 % of control and 93 % of control | [2] 98 % of control | [3] 87 % of control

CC(C)Cc1c(O)c(N=Nc2ccc(C(=O)O)c(O)c2)c2ccccc2c1O
inactive: dose: 100.0 mg/kg/injection, schedule: Q04DX002 (ip), vehicle: distilled water + alcohol 99 % of control | dose: 200.0 mg/kg/injection, schedule: Q04DX002 (ip), vehicle: distilled water + alcohol 97 % of control

CCN1CCCC(=O)C1
inactive: [5] 96 % of control | [6] 101 % of control | [7] 102 % of control

CC(=O)NCCn1nc(-c2ccc(Cl)cc2)c(-c2ccc(Cl)cc2)c(C(C)=O)c1=O
inactive: dose: 6.25 mg/kg/injection, schedule: Q01DX005 (ip), vehicle: saline with Tween-80 103 % of control | dose: 12.5 mg/kg/injection, schedule: Q01DX005 (ip), vehicle: saline with Tween-80 103 % of control

COc1cc(C)c(OC)c(CC=C(C)CC(=O)C[C@@]2(C)CCC[C@@]2(C)C(=O)CCC(C)(C)O)c1 (mixture of isomers)
inactive: [4] 93 % of control | [5] 91 % of control | [6] 95 % of control

CC(C)(C)N=C(CCN1CCCCC1)Nc1ccc([N+](=O)[O-])cc1
inactive: [9] 112 % of control | [10] 110 % of control | [11] 103 % of control

CC(=O)N(c1ccccc1)c1ccccc1[N+](=O)[O-]
inactive: [12] 87 % of control | [13] 86 % of control | [14] 86 % of control

COc1cc(OC)c(NC(=S)Nc2cc(Cl)c(OC)cc2OC)cc1Cl
inactive: [9] 106 % of control | [10] 102 % of control | [11] 103 % of control

N/C(=N\O)c1ccc2oc(/C=C/c3cc4cc(/C(N)=N\O)ccc4o3)cc2c1
inactive: [12] 100 % of control | [13] 97 % of control | [14] 91 % of control

CC(=O)[C-](C)C(C)=O.CC(=O)[C-](C)C(C)=O.CC(=O)[C-](C)C(C)=O.[Ru+3]
inactive: [5] 100 % of control | [6] 113 % of control | [7] 90 % of control

COC1/C=C/OC2(C)Oc3c(C)c(O)c4c(O)c(c(/C=N/n5c(=O)[nH]c6ccccc6c5=O)c(O)c4c3C2=O)NC(=O)/C(C)=C\C=C\C(C)C(O)C(C)C(O)C(C)C(OC(C)=O)C1C (stereo not drawn)
inactive: [9] 107 % of control | [10] 108 % of control | [11] 106 % of control

CNC(=O)OCCN(CCOC(=O)NC)C(=O)N1c2ccccc2Sc2ccccc21
inactive: dose: 12.5 mg/kg/injection, schedule: Q01DX009 (ip), vehicle: saline with Tween-80 94 % of control | dose: 25.0 mg/kg/injection, schedule: Q01DX009 (ip), vehicle: saline with Tween-80 98 % of control | [9] 91 % of control | [10] 100 % of control | [11] 100 % of control

CC(=O)Nc1cc2cccnc2sc1=O
inactive: [8] 98 % of control | [1] 91 % of control | [2] 89 % of control and 94 % of control | [3] 96 % of control

CC(C)=NNC1=NC(C)(C)P(=O)(N2CCCC2C(=O)O)S1 (stereo not drawn)
inactive: [15] 98 % of control | [16] 104 % of control | [17] 102 % of control

O=C(NN(CCO)CCO)c1ccccc1
inactive: [5] 100 % of control | [6] 105 % of control | [7] 100 % of control

CCCN(CCC)c1nc2ccc(NC(=O)OCC)cc2s1
inactive: dose: 12.5 mg/kg/injection, schedule: Q01DX009 (ip), vehicle: saline 95 % of control | dose: 25.0 mg/kg/injection, schedule: Q01DX009 (ip), vehicle: saline 100 % of control | [9] 101 % of control | [12] 100 % of control

NCC(O)COCc1ccccc1 (stereo not drawn)
inactive: dose: 50.0 mg/kg/injection, schedule: Q04DX002 (ip), vehicle: saline with Tween-80 100 % of control | dose: 100.0 mg/kg/injection, schedule: Q01DX001 (ip), vehicle: saline with Tween-80 90 % of control | dose: 100.0 mg/kg/injection, schedule: Q04DX002 (ip), vehicle: saline with Tween-80 100 % of control

O=C(O)c1cc(Cl)n[nH]c1=O
inactive: [1] 95 % of control | [2] 92 % of control | [3] 86 % of control

COc1ccc2c(c1)NC(O)c1cccn1C2=O (stereo not drawn)
inactive: dose: 0.1 mg/kg/injection, schedule: Q01DX005 (ip), vehicle: water 91 % of control | dose: 0.2 mg/kg/injection, schedule: Q01DX005 (ip), vehicle: water 91 % of control | dose: 0.4 mg/kg/injection, schedule: Q01DX005 (ip), vehicle: water 93 % of control | dose: 0.8 mg/kg/injection, schedule: Q01DX005 (ip), vehicle: water 96 % of control | dose: 1.6 mg/kg/injection, schedule: Q01DX005 (ip), vehicle: water 102 % of control | dose: 5.0 mg/kg/injection, schedule: Q01DX005 (ip), vehicle: distilled water + Tween-80 100 % of control | dose: 10.0 mg/kg/injection, schedule: Q01DX005 (ip), vehicle: distilled water + Tween-80 94 % of control | dose: 20.0 mg/kg/injection, schedule: Q01DX005 (ip), vehicle: distilled water + Tween-80 100 % of control | dose: 40.0 mg/kg/injection, schedule: Q01DX005 (ip), vehicle: distilled water + Tween-80 95 % of control | dose: 80.0 mg/kg/injection, schedule: Q01DX005 (ip), vehicle: distilled water + Tween-80 91 % of control

CC(=O)N(C)N
inactive: [15] 107 % of control | [16] 102 % of control | [17] 93 % of control

CC(C)CC(NN)C(=O)NC(CCCN=C(N)N)C(=O)NC(CCCN=C(N)N)C(=O)NC(C)C(=O)NC(CO)C(=O)NC(C(=O)NC(C)C(=O)O)C(C)C (stereo not drawn) (X13-RRASVA-OH; configuration not given here)
inactive: dose: 4.5 mg/kg/injection, schedule: Q01DX009 (ip), vehicle: Klucel (hydroxypropylcellulose) (HPC) 101 % of control | dose: 9.0 mg/kg/injection, schedule: Q01DX009 (ip), vehicle: Klucel (hydroxypropylcellulose) (HPC) 94 % of control | dose: 18.0 mg/kg/injection, schedule: Q01DX009 (ip), vehicle: Klucel (hydroxypropylcellulose) (HPC) 98 % of control | dose: 36.0 mg/kg/injection, schedule: Q01DX009 (ip), vehicle: Klucel (hydroxypropylcellulose) (HPC) 96 % of control

NC(=O)NNc1cccc(Cl)n1
inactive: dose: 100.0 mg/kg/injection, schedule: Q01DX001 (ip), vehicle: Klucel (hydroxypropylcellulose) (HPC) 96 % of control | dose: 200.0 mg/kg/injection, schedule: Q01DX001 (ip), vehicle: Klucel (hydroxypropylcellulose) (HPC) 101 % of control | dose: 400.0 mg/kg/injection, schedule: Q01DX001 (ip), vehicle: Klucel (hydroxypropylcellulose) (HPC) 97 % of control

Cc1c(/C=C/C(=O)O)no[n+]1[O-]
inactive: [5] 102 % of control | [6] 98 % of control | [7] 100 % of control

COc1cc(OC)c(C(c2cc3c(cc2O)OCO3)N2CCOCC2)c(OC)c1 (stereo not drawn)
inactive: dose: 60.0 mg/kg/injection, schedule: Q01DX005 (ip), vehicle: saline with Tween-80 118 % of control | dose: 120.0 mg/kg/injection, schedule: Q01DX005 (ip), vehicle: saline with Tween-80 120 % of control

CC1=Nc2ccccc2SC2(C1)C(C1COC(C)(C)O1)OC1OC(C)(C)OC12 (stereo not drawn)
inactive: [5] 93 % of control | [6] 94 % of control | [7] 92 % of control

CC(=O)Nc1nc(Cl)c2[nH]cnc2n1
inactive: [8] 98 % of control | [1] 98 % of control | [2] 102 % of control | [3] 112 % of control
